Source: patent publication US10004701B2, “Methods and compositions for treating infection” (UNIVERSITY OF ROCHESTER, priority 2012, dated 2018)
Counter-ions that a name gives are not always drawn. Like-named read-outs stand apart in the source and are kept apart here.

Key:
Experiment in all cases: AK assay 384-well format, Prestwick library screening
E. cloacae = type: cell-based, Enterobacter cloacae; conditions: Enterobacter cloacae, 3 h, 50 μM final drug concentration
P. aeruginosa = type: cell-based, Pseudomonas aeruginosa; conditions: Pseudomonas aeruginosa, 3 h, 50 μM final drug concentration
E. coli = type: cell-based, Escherichia coli; conditions: Escherichia coli, 3 h, 50 μM final drug concentration
E. faecium = type: cell-based, Enterococcus faecium; conditions: Enterococcus faecium, 3 h, 50 μM final drug concentration
[1] = tested on: A. baumannii strain 98-37-09; type: cell-based, Acinetobacter baumannii; conditions: Acinetobacter baumannii, 983709, 3 h, 50 μM final drug concentration
K. pneumoniae = type: cell-based, Klebsiella pneumoniae; conditions: Klebsiella pneumoniae, 3 h, 50 μM final drug concentration
[2] = tested on: S. aureus strain USA300-0114; type: cell-based, Staphylococcus aureus; conditions: Staphylococcus aureus, USA300, 3 h, 50 μM final drug concentration
[3] = 384-well format, cutoff for positive-scoring molecules 3-fold increase, read-out: AK-based Prestwick Library Screening Results, E. cloacae (increase in extracellular AK activity)
[4] = 384-well format, cutoff for positive-scoring molecules 3-fold increase, read-out: AK-based Prestwick Library Screening Results, P. aeruginosa (increase in extracellular AK activity)
[5] = 384-well format, cutoff for positive-scoring molecules 3-fold increase, read-out: AK-based Prestwick Library Screening Results, E. coli (increase in extracellular AK activity)
[6] = 384-well format, cutoff for positive-scoring molecules 3-fold increase, read-out: AK-based Prestwick Library Screening Results, E. faecium (increase in extracellular AK activity)
[7] = 384-well format, cutoff for positive-scoring molecules 3-fold increase, read-out: AK-based Prestwick Library Screening Results, A. baumannii (increase in extracellular AK activity)
[8] = 384-well format, cutoff for positive-scoring molecules 3-fold increase, read-out: AK-based Prestwick Library Screening Results, K. pneumoniae (increase in extracellular AK activity)
[9] = 384-well format, cutoff for positive-scoring molecules 3-fold increase, read-out: AK-based Prestwick Library Screening Results, S. aureus (increase in extracellular AK activity)
[10] = planktonic, cutoff for positive-scoring molecules 3-fold increase, read-out: AK-based Prestwick Library Screening Results, E. cloacae (fold increase in extracellular AK activity)
[11] = planktonic, cutoff for positive-scoring molecules 3-fold increase, read-out: AK-based Prestwick Library Screening Results, P. aeruginosa (fold increase in extracellular AK activity)
[12] = planktonic, cutoff for positive-scoring molecules 3-fold increase, read-out: AK-based Prestwick Library Screening Results, E. coli (fold increase in extracellular AK activity)
[13] = planktonic, cutoff for positive-scoring molecules 3-fold increase, read-out: AK-based Prestwick Library Screening Results, E. faecium (fold increase in extracellular AK activity)
[14] = planktonic, cutoff for positive-scoring molecules 3-fold increase, read-out: AK-based Prestwick Library Screening Results, A. baumannii (fold increase in extracellular AK activity)
[15] = planktonic, cutoff for positive-scoring molecules 3-fold increase, read-out: AK-based Prestwick Library Screening Results, K. pneumoniae (fold increase in extracellular AK activity)
[16] = planktonic, cutoff for positive-scoring molecules 3-fold increase, read-out: AK-based Prestwick Library Screening Results, S. aureus (fold increase in extracellular AK activity)

Which fold induction at 50 µM (E. cloacae; [3]) does the source give for `NS(=O)(=O)c1cc2c(cc1C(F)(F)F)NCNS2(=O)=O` [Hydroflumethiazide] here?
The fold induction at 50 µM was 0.7.

What about the fold induction at 50 µM (P. aeruginosa; [4]) of the same compound?
The fold induction at 50 µM was 0.5.

And the fold induction at 50 µM (E. coli; [5])?
Its fold induction at 50 µM is 0.7.

And the fold induction at 50 µM (E. faecium; [6])?
The fold induction at 50 µM was 0.9.

And the fold induction at 50 µM [1, 7]?
The fold induction at 50 µM was 0.7.

And the fold induction at 50 µM (K. pneumoniae; [8])?
The fold induction at 50 µM was 0.5.

What about the fold induction at 50 µM [2, 9] of the same compound?
The fold induction at 50 µM was 0.5.

`CC[C@H]1CN2CC[C@H]1C[C@H]2[C@H](O)c1ccnc2ccc(OC)cc12` [Hydroquinine hydrobromide hydrate] was tested. Which fold induction at 50 µM (E. cloacae; planktonic, cutoff for positive 3-fold increase, read-out: AK-based Prestwick Library Screening Results, E. cloacae (fold increase in extracellular AK activity)) did it give?
Its fold induction at 50 µM is 1.6.

And the fold induction at 50 µM (P. aeruginosa; planktonic, cutoff for positive 3-fold increase, read-out: AK-based Prestwick Library Screening Results, P. aeruginosa (fold increase in extracellular AK activity))?
The fold induction at 50 µM was 1.2.

What about the fold induction at 50 µM (E. coli; planktonic, cutoff for positive 3-fold increase, read-out: AK-based Prestwick Library Screening Results, E. coli (fold increase in extracellular AK activity)) of the same compound?
Its fold induction at 50 µM is 1.2.

What about the fold induction at 50 µM (E. faecium; planktonic, cutoff for positive 3-fold increase, read-out: AK-based Prestwick Library Screening Results, E. faecium (fold increase in extracellular AK activity)) of the same compound?
Its fold induction at 50 µM is 1.1.

What about the fold induction at 50 µM ([1]; planktonic, cutoff for positive 3-fold increase, read-out: AK-based Prestwick Library Screening Results, A. baumannii (fold increase in extracellular AK activity)) of the same compound?
The fold induction at 50 µM was 1.2.

What about the fold induction at 50 µM (K. pneumoniae; planktonic, cutoff for positive 3-fold increase, read-out: AK-based Prestwick Library Screening Results, K. pneumoniae (fold increase in extracellular AK activity)) of the same compound?
Its fold induction at 50 µM is 1.3.

And the fold induction at 50 µM ([2]; planktonic, cutoff for positive 3-fold increase, read-out: AK-based Prestwick Library Screening Results, S. aureus (fold increase in extracellular AK activity))?
The fold induction at 50 µM was 1.

Which results are given for `OCCOCCN1CCN(C(c2ccccc2)c2ccc(Cl)cc2)CC1` (stereo not drawn) [Hydroxyzine dihydrochloride]?
fold induction at 50 µM (E. cloacae; planktonic E. cloacae, 384-well, cutoff for positive-scoring molecules 3-fold increase, read-out: AK-based Prestwick Library Screening Results: E. cloacae (increase in extracellular AK activity)): 1.6; fold induction at 50 µM (P. aeruginosa; planktonic P. aeruginosa, 384-well, cutoff for positive-scoring molecules 3-fold increase, read-out: AK-based Prestwick Library Screening Results: P. aeruginosa (increase in extracellular AK activity)): 1; fold induction at 50 µM (E. coli; planktonic E. coli, 384-well, cutoff for positive-scoring molecules 3-fold increase, read-out: AK-based Prestwick Library Screening Results: E. coli (increase in extracellular AK activity)): 1; fold induction at 50 µM (E. faecium; planktonic E. faecium, 384-well, cutoff for positive-scoring molecules 3-fold increase, read-out: AK-based Prestwick Library Screening Results: E. faecium (increase in extracellular AK activity)): 0.9; fold induction at 50 µM ([1]; planktonic A. baumannii, 384-well, cutoff for positive-scoring molecules 3-fold increase, read-out: AK-based Prestwick Library Screening Results: A. baumannii (increase in extracellular AK activity)): 1; fold induction at 50 µM (K. pneumoniae; planktonic K. pneumoniae, 384-well, cutoff for positive-scoring molecules 3-fold increase, read-out: AK-based Prestwick Library Screening Results: K. pneumoniae (increase in extracellular AK activity)): 0.8; fold induction at 50 µM ([2]; planktonic S. aureus, 384-well, cutoff for positive-scoring molecules 3-fold increase, read-out: AK-based Prestwick Library Screening Results: S. aureus (increase in extracellular AK activity)): 0.9

Which results are given for `Cc1cc(=O)oc2cc(O)ccc12` [Hymecromone]?
fold induction at 50 µM (E. cloacae; [10]): 1.1; fold induction at 50 µM (P. aeruginosa; [11]): 1; fold induction at 50 µM (E. coli; [12]): 0.9; fold induction at 50 µM (E. faecium; [13]): 1; fold induction at 50 µM [1, 14]: 0.8; fold induction at 50 µM (K. pneumoniae; [15]): 0.7; fold induction at 50 µM [2, 16]: 1

With `c1ccc2c(c1)OCC(C1=NCCN1)O2` (stereo not drawn) [Idazoxan hydrochloride] as the compound, how does the fold induction at 50 µM (E. cloacae; cutoff for positive-scoring molecules 3-fold increase, read-out: AK-based Prestwick Library Screening Results, E. cloacae (fold increase in extracellular AK activity)) read?
The fold induction at 50 µM was 1.5.

And the fold induction at 50 µM (P. aeruginosa; cutoff for positive-scoring molecules 3-fold increase, read-out: AK-based Prestwick Library Screening Results, P. aeruginosa (fold increase in extracellular AK activity))?
The fold induction at 50 µM was 1.2.

And the fold induction at 50 µM (E. coli; cutoff for positive-scoring molecules 3-fold increase, read-out: AK-based Prestwick Library Screening Results, E. coli (fold increase in extracellular AK activity))?
The fold induction at 50 µM was 1.1.

What about the fold induction at 50 µM (E. faecium; cutoff for positive-scoring molecules 3-fold increase, read-out: AK-based Prestwick Library Screening Results, E. faecium (fold increase in extracellular AK activity)) of the same compound?
The fold induction at 50 µM was 1.

What about the fold induction at 50 µM ([1]; cutoff for positive-scoring molecules 3-fold increase, read-out: AK-based Prestwick Library Screening Results, A. baumannii (fold increase in extracellular AK activity)) of the same compound?
Its fold induction at 50 µM is 1.1.

And the fold induction at 50 µM (K. pneumoniae; cutoff for positive-scoring molecules 3-fold increase, read-out: AK-based Prestwick Library Screening Results, K. pneumoniae (fold increase in extracellular AK activity))?
The fold induction at 50 µM was 1.

What about the fold induction at 50 µM ([2]; cutoff for positive-scoring molecules 3-fold increase, read-out: AK-based Prestwick Library Screening Results, S. aureus (fold increase in extracellular AK activity)) of the same compound?
The fold induction at 50 µM was 1.1.

Which fold induction at 50 µM (E. cloacae; [3]) does the source give for `O=c1[nH]c(=O)n([C@H]2C[C@H](O)[C@@H](CO)O2)cc1I` [Idoxuridine] here?
Its fold induction at 50 µM is 0.8.

What about the fold induction at 50 µM (P. aeruginosa; [4]) of the same compound?
Its fold induction at 50 µM is 0.6.

And the fold induction at 50 µM (E. coli; [5])?
Its fold induction at 50 µM is 0.7.

What about the fold induction at 50 µM (E. faecium; [6]) of the same compound?
The fold induction at 50 µM was 1.

And the fold induction at 50 µM [1, 7]?
Its fold induction at 50 µM is 0.7.

What about the fold induction at 50 µM (K. pneumoniae; [8]) of the same compound?
Its fold induction at 50 µM is 0.6.

What about the fold induction at 50 µM [2, 9] of the same compound?
Its fold induction at 50 µM is 0.7.

Which results are given for `O=P1(NCCCl)OCCCN1CCCl` (stereo not drawn) [Ifosfamide]?
fold induction at 50 µM (E. cloacae; [10]): 1.4; fold induction at 50 µM (P. aeruginosa; [11]): 0.9; fold induction at 50 µM (E. coli; [12]): 9; fold induction at 50 µM (E. faecium; [13]): 0.8; fold induction at 50 µM [1, 14]: 0.8; fold induction at 50 µM (K. pneumoniae; [15]): 0.7; fold induction at 50 µM [2, 16]: 0.8

How did the fold induction at 50 µM (E. cloacae; planktonic E. cloacae, […], read-out: AK-based Prestwick library screening result, E. cloacae (fold increase in extracellular AK activity)) turn out when `O=C(NCNC(=O)NC1C(=O)NC(=O)N1CO)NC1C(=O)NC(=O)N1CO` (stereo not drawn) [Imidurea] was run?
Its fold induction at 50 µM is 1.2.

What about the fold induction at 50 µM (P. aeruginosa; planktonic P. aeruginosa, […], read-out: AK-based Prestwick library screening result, P. aeruginosa (fold increase in extracellular AK activity)) of the same compound?
The fold induction at 50 µM was 0.8.

And the fold induction at 50 µM (E. coli; planktonic E. coli, […], read-out: AK-based Prestwick library screening result, E. coli (fold increase in extracellular AK activity))?
Its fold induction at 50 µM is 0.9.

And the fold induction at 50 µM (E. faecium; planktonic E. faecium, […], read-out: AK-based Prestwick library screening result, E. faecium (fold increase in extracellular AK activity))?
The fold induction at 50 µM was 0.9.

What about the fold induction at 50 µM ([1]; planktonic A. baumannii, […], read-out: AK-based Prestwick library screening result, A. baumannii (fold increase in extracellular AK activity)) of the same compound?
The fold induction at 50 µM was 0.8.

What about the fold induction at 50 µM (K. pneumoniae; planktonic K. pneumoniae, […], read-out: AK-based Prestwick library screening result, K. pneumoniae (fold increase in extracellular AK activity)) of the same compound?
The fold induction at 50 µM was 0.7.

What about the fold induction at 50 µM ([2]; planktonic S. aureus, […], read-out: AK-based Prestwick library screening result, S. aureus (fold increase in extracellular AK activity)) of the same compound?
The fold induction at 50 µM was 0.7.

What does the source list for `C[C@@H](O)[C@H]1C(=O)N2C(C(=O)O)=C(SCCN=CN)C[C@H]12` [Imipenem]?
fold induction at 50 µM (E. cloacae; planktonic E. cloacae, cutoff for positive-scoring molecules 3-fold increase, read-out: AK-based Prestwick Library Screening Results, E. cloacae (increase in extracellular AK activity)): 2.4; fold induction at 50 µM (P. aeruginosa; planktonic P. aeruginosa, cutoff for positive-scoring molecules 3-fold increase, read-out: AK-based Prestwick Library Screening Results, P. aeruginosa (increase in extracellular AK activity)): 1; fold induction at 50 µM (E. coli; planktonic E. coli, cutoff for positive-scoring molecules 3-fold increase, read-out: AK-based Prestwick Library Screening Results, E. coli (increase in extracellular AK activity)): 12.1; fold induction at 50 µM (E. faecium; planktonic E. faecium, cutoff for positive-scoring molecules 3-fold increase, read-out: AK-based Prestwick Library Screening Results, E. faecium (increase in extracellular AK activity)): 0.9; fold induction at 50 µM ([1]; planktonic A. baumannii, cutoff for positive-scoring molecules 3-fold increase, read-out: AK-based Prestwick Library Screening Results, A. baumannii (increase in extracellular AK activity)): 1.2; fold induction at 50 µM (K. pneumoniae; planktonic K. pneumoniae, cutoff for positive-scoring molecules 3-fold increase, read-out: AK-based Prestwick Library Screening Results, K. pneumoniae (increase in extracellular AK activity)): 1.7; fold induction at 50 µM ([2]; planktonic S. aureus, cutoff for positive-scoring molecules 3-fold increase, read-out: AK-based Prestwick Library Screening Results, S. aureus (increase in extracellular AK activity)): 2.5
